Data from ChEMBL document CHEMBL1201862, “PubChem BioAssay data set” (2004).
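Briefly, cells in 96-well plates were exposed to five compound concentrations for 48 h, and endpoints were estimated by linear interpolation. Abbreviation: GI50, concentration required for 50% inhibition of growth.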 Activity calls are given as the source filed them. Cut-off read from the data, not from the text of the source: active = GI50 up to about 1.1 µM and inactive = higher.

How the values were obtained:
Assay in all cases: NCI anticancer screen, dose series, 48 h
SNB-75 = system: SNB-75
KM12 = system: KM12
A498 = system: A498
SK-MEL-2 = system: SK-MEL-2
M14 = system: M14
MDA-MB-435 = system: MDA-MB-435
IGROV-1 = system: IGROV-1
SNB-19 = system: SNB-19
SK-MEL-5 = system: SK-MEL-5
SW-620 = system: SW-620
LOX IMVI = system: LOX IMVI
MOLT-4 = system: MOLT-4
HOP-92 = system: HOP-92
ACHN = system: ACHN
HCC 2998 = system: HCC 2998
SF-268 = system: SF-268
OVCAR-5 = system: OVCAR-5
HCT-15 = system: HCT-15
BT-549 = system: BT-549
NCI-H226 = system: NCI-H226
K562 = system: K562
MDA-MB-231 = system: MDA-MB-231
T47D = system: T47D
SK-MEL-28 = system: SK-MEL-28
TK-10 = system: TK-10
OVCAR-3 = system: OVCAR-3
MCF7 = system: MCF7
SN12C = system: SN12C
RPMI-8226 = system: RPMI-8226
DU-145 = system: DU-145
HCT-116 = system: HCT-116
CCRF-CEM = system: CCRF-CEM
SK-OV-3 = system: SK-OV-3
OVCAR-8 = system: OVCAR-8
NCI/ADR-RES = system: NCI/ADR-RES
NCI-H460 = system: NCI-H460
HT-29 = system: HT-29
COLO 205 = system: COLO 205
SR = system: SR
EKVX = system: EKVX
PC-3 = system: PC-3
RXF 393 = system: RXF 393
UACC-62 = system: UACC-62
NCI-H23 = system: NCI-H23
Hs-578T = system: Hs-578T
HL-60 = system: HL-60
U-251 = system: U-251
HOP-62 = system: HOP-62
UO-31 = system: UO-31
UACC-257 = system: UACC-257
A549 = system: A549
MDA-N = system: MDA-N
OVCAR-4 = system: OVCAR-4
CAKI-1 = system: CAKI-1
786-0 = system: 786-0
SF-295 = system: SF-295
SF-539 = system: SF-539
NCI-H522 = system: NCI-H522
Malme-3M = system: Malme-3M

Compound: COc1cc(C2c3cc4c(cc3OC(N3CCCC3)C2C)OCO4)cc(OC)c1OC (centres undefined)
- GI50 (SNB-75): 0.443 µM (active)
- GI50 (KM12): 0.322 µM (active)
- GI50 (A498): 0.326 µM (active)
- GI50 (SK-MEL-2): 0.394 µM (active)
- GI50 (M14): 0.34 µM (active)
- GI50 (MDA-MB-435): 0.177 µM (active)
- GI50 (IGROV-1): 0.813 µM (active)
- GI50 (SNB-19): 1.21 µM (inactive)
- GI50 (SK-MEL-5): 0.344 µM (active)
- GI50 (SW-620): 0.366 µM (active)
- GI50 (LOX IMVI): 0.766 µM (active)
- GI50 (MOLT-4): 1.08 µM (active)
- GI50 (HOP-92): 0.973 µM (active)
- GI50 (ACHN): 1.47 µM (inactive)
- GI50 (HCC 2998): 1.34 µM (inactive)
- GI50 (SF-268): 2.34 µM (inactive)
- GI50 (OVCAR-5): 1.09 µM (active)
- GI50 (HCT-15): 0.526 µM
- GI50 (BT-549): 0.515 µM (active)
- GI50 (NCI-H226): 0.433 µM (active)
- GI50 (K562): 0.361 µM (active)
- GI50 (MDA-MB-231): 0.697 µM (active)
- GI50 (T47D): 63.1 µM (inactive)
- GI50 (SK-MEL-28): 5.43 µM (inactive)
- GI50 (TK-10): 0.938 µM (active)
- GI50 (OVCAR-3): 0.221 µM (active)
- GI50 (MCF7): 0.296 µM (active)
- GI50 (SN12C): 0.757 µM (active)
- GI50 (RPMI-8226): 1.08 µM (active)
- GI50 (DU-145): 0.571 µM (active)
- GI50 (HCT-116): 0.481 µM (active)
- GI50 (CCRF-CEM): 0.502 µM (active)
- GI50 (SK-OV-3): 0.628 µM (active)
- GI50 (OVCAR-8): 0.832 µM (active)
- GI50 (NCI/ADR-RES): 0.316 µM (active)
- GI50 (NCI-H460): 0.767 µM (active)
- GI50 (HT-29): 0.395 µM (active)
- GI50 (COLO 205): 0.433 µM (active)
- GI50 (SR): 0.32 µM (active)
- GI50 (EKVX): 3.53 µM (inactive)
- GI50 (PC-3): 0.524 µM (active)
- GI50 (RXF 393): 0.286 µM (active)
- GI50 (UACC-62): 0.509 µM (active)
- GI50 (NCI-H23): 0.548 µM (active)
- GI50 (Hs-578T): 0.445 µM (active)
- GI50 (HL-60): 0.355 µM (active)
- GI50 (U-251): 0.644 µM (active)
- GI50 (HOP-62): 0.596 µM (active)
- GI50 (UO-31): 1.91 µM (inactive)
- GI50 (UACC-257): 1.07 µM (active)
- GI50 (A549): 0.989 µM (active)
- GI50 (MDA-N): 0.167 µM (active)
- GI50 (OVCAR-4): 2.31 µM (inactive)
- GI50 (CAKI-1): 0.664 µM (active)
- GI50 (786-0): 0.729 µM (active)
- GI50 (SF-295): 0.303 µM (active)
- GI50 (SF-539): 0.246 µM (active)
- GI50 (NCI-H522): 0.548 µM (active)
- GI50 (Malme-3M): 0.578 µM (active)
